Measurements taken from patent US10023591B2, “Heterocyclic derivatives and use thereof” (C&C RESEARCH LABORATORIES, priority 2014, dated 2018).

Assays:
STAT3 = STAT3 reporter gene assay (luciferase), LNCaP stable cell line pSTAT3-TA-luc, IL-6 stimulation; assay type: cell-based, human; conditions: Homo sapiens
Description: 1-1) Experiment on the Inhibition of STAT3 Activity
A human prostate cancer cell line (LNCaP stable cell line; plasmid pSTAT3-TA-luc), which contains a stably operating STAT3 promoter, was cultured in RPMI1640 medium (Cat No. 11875, Life Technologies) containing 10% fetal bovine serum (FBS) (Cat No. SH30396, Thermo Scientific) and 150 μg/mL G-418 solution (Cat No. 04 727 894 001, Roche). The reporter gene assay using LNCaP stable cell line was performed in RPMI1640 medium containing 3% DCC-FBS without G-418 solution. LNCaP stable cells were plated in two (2) white 96-well plates with 30,000 cells/50 μL in each well. The cells were cultured at 37° C., under 5% CO2 for 24 hours, and then treated with the compounds listed in Examples which were diluted in various concentrations. Subsequently, IL-6 was added to each well with a final concentration of 10 ng/mL. Upon completion of the treatment with the compounds and IL-6, the cells were cultured at 37° C., under 5% CO2 for 24 hours. The plates were observed under microscope and drug precipitation and particular findings were investigated and recorded.
(§1) The luciferase assay and the cell viability assay were performed respectively with one of the two plates. For the luciferase assay, the liquid media in the 96-well plate was removed, and then, 20 μL, of passive cell lysis buffer was added to each well. After shaking the plate for 30 minutes, luciferase activities of each well were measured in a PHERAstar™ microplate reader (BMG LABTECH) using a luciferase assay system (Cat No. E1501, Promega). For the cell viability assay, the 96-well plate was placed at room temperature for 30 minutes, added with 20 μL/well of CellTiter-Glo solution (Cat No. G7573, Promega), and shaken for 10 minutes in order to measure cytotoxicity caused by the compounds listed in Examples with a PHERAstar™ microplate reader (BMG LABTECH). Wells without 0.1% DMSO and stimulation were used as a negative control and wells with 0.1% DMSO and stimulation were used as a positive control.
(§2) The results of evaluation on the inhibitory effect of the compounds listed in the Examples on the dimerization of STAT3 and STAT1 obtained via the STAT3 and STAT1 reporter gene assays are shown in Table 9 below.

STAT1 = STAT1 reporter gene assay (luciferase), U2OS stable cell line pGL4-STAT1-TA-luc, IFN-γ stimulation; assay type: cell-based, human; conditions: Homo sapiens, IFN-γ 50 ng/mL, 8 hours, read-out: IC50 (μM) pSTAT1
Description: 1-2) Experiment on the Inhibition of STAT1 Activity
A human osteosarcoma cell line (U2OS stable cell line; pGL4-STAT1-TA-luc), which contains a stably operating STAT1 promoter, was cultured in McCoy 5′A medium (Cat No. 16600, Life Technologies) containing 10% FBS (Cat No. SH30396, Thermo Scientific) and 1000 μg/mL G418 solution (Cat No. 04 727 894 001, Roche). The reporter gene assay using U2OS stable cell line was performed in McCoy 5′A medium containing 10% FBS without G-418 solution. U2OS stable cells were plated in two (2) white 96-well plates with 25,000 cells/50 pt in each well. The cells were cultured at 37° C., under 5% CO2 for 24 hours, and then treated with the compounds listed in Examples which were diluted in various concentrations. Subsequently, IFN-γ was added to each well with a final concentration of 50 ng/mL. Upon completion of the treatment with the compounds and IFN-γ, the cells were cultured at 37° C., under 5% CO2 for 8 hours. The plates were observed under microscope and drug precipitation and particular findings were investigated and recorded.
as §1, with “of” for “of the”, “μL” for “μL,”
as §2

[1] = test system: NCI-N87 stomach cancer cell line; assay: Cell growth inhibition assay, NCI-N87 (CellTiter-Glo); assay type: cell-based; conditions: Homo sapiens; NCI-N87, 5,000 cells/well, 96 hours
Description: The inhibitory effects of the compounds of the present invention against the growth of cancer cells were evaluated as shown below. The cancer cell lines including prostate cancer cell lines (LNCaP, DU-145), stomach cancer cell line (NCI-N87), and breast cancer cell lines (MDA-MB-468) were cultured under the protocol provided by each supplier. A medium supplemented with 10 ng/mL of IL-6 was used for LNCaP, a prostate cancer cell line, when treated with a drug. Each type of cells to be used in experiments was sub-cultured in a 96-well plate by counting the exact number of cells using Tali™ Image-based Cytometer (Life Technologies). In a 96-well plate, DU-145 was employed with 3,000 cells/well; NCI-N87 was employed with 5,000 cells/well; and LNCaP and MDA-MB-468 were employed with 10,000 cells/well. The cells were treated with the compounds listed in Examples which were diluted in various concentrations. Upon completion of the compounds treatment, LNCaP, DU-145, NCI-N87 cells were cultured at 37° C. under 5% CO2 for 96 hours, and MDA-MB-468 cells were cultured at 37° C. in air for 96 hours. Subsequently, the cells were observed under microscope and drug precipitation and particular findings were investigated and recorded. And then, the 96-well plate was placed at room temperature for 30 minutes, added with 20 pt/well of CellTiter-Glo solution (Cat No. G7573, Promega) and shaken for 10 minutes, followed by being subjected to the measurement using PHERAstar™ microplate reader (BMG LABTECH) according to the supplier's general luminometer protocol. Wells where only culture liquid added without cell plating were used as a negative control, whereas wells where culture liquid containing 0.1% DMSO instead of the compounds listed in Examples were used as a positive control.

SMILES	IC50 (STAT3)	IC50 (STAT1)	IC50 [1]
CC(C)(C)C1CCN(c2cc(NC(=O)c3cc4cc(C(C)(C)S(C)(=O)=O)ccc4s3)cc(Cl)n2)CC1 [Example 105, N-(2-(4-(tert-butyl)piperidin-1-yl)-6-chloropyridin-4-yl)-5-(2-(methylsulfonyl)propan-2-yl)benzo[b]thiophene-2-carboxamide]	0.049 µM	> 50 µM	0.087 µM
CC(C)(c1ccc2sc(C(=O)Nc3cc(Cl)nc(N4CCN5CCCCC5C4)c3)cc2c1)S(C)(=O)=O (stereo not drawn) [Example 106, N-(2-chloro-6-(octahydro-2H-pyrido[1,2-a]pyrazin-2-yl)pyridin-4-yl)-5-(2-(methylsulfonyl)propan-2-yl)benzo[b]thiophene-2-carboxamide]	0.43 µM	8.5 µM	1.8 µM
CC(C)(c1ccc2sc(C(=O)Nc3cc(Cl)nc(Oc4ccc(F)cc4)c3)cc2c1)S(C)(=O)=O [Example 68, N-(2-chloro-6-(4-fluorophenoxy)pyridin-4-yl)-5-(2-(methylsulfonyl)propan-2-yl)benzo[b]thiophene-2-carboxamide]	0.011 µM	> 50 µM	0.03 µM
CC(C)(c1ccc2sc(C(=O)Nc3cc(Br)nc(Oc4ccc(Cl)cc4)c3)cc2c1)S(C)(=O)=O [Example 69, N-(2-bromo-6-(4-chlorophenoxy)pyridin-4-yl)-5-(2-(methylsulfonyl)propan-2-yl)benzo[b]thiophene-2-carboxamide]	0.01 µM	> 50 µM	0.015 µM
CC(C)(c1ccc2sc(C(=N)Nc3cc(Cl)cc(Oc4ccc(Cl)cc4)c3)cc2c1)S(C)(=O)=O [Example 103, N-(3-chloro-5-(4-chlorophenoxy)phenyl)-5-(2-(methylsulfonyl)propan-2-yl)benzo[b]thiophene-2-carboximidamide 2,2,2-trifluoroacetate]	0.18 µM	> 50 µM	1.3 µM
Cn1cccc1C(C)(C)c1cc(Cl)cc(NC(=O)c2cc3cc(C(C)(C)S(C)(=O)=O)ccc3s2)c1 [Example 31, N-(3-chloro-5-(2-(1-methyl-1H-pyrrol-2-yl)propan-2-yl)phenyl)-5-(2-(methylsulfonyl)propan-2-yl)benzo[b]thiophene-2-carboxamide]	0.0025 µM	> 50 µM	0.24 µM
COc1cc(Cl)cc(Oc2cc(NC(=O)c3cc4cc(C(C)(C)S(C)(=O)=O)ccc4s3)cc(Cl)n2)c1 [Example 70, N-(2-chloro-6-(3-chloro-5-methoxyphenoxy)pyridin-4-yl)-5-(2-(methylsulfonyl)propan-2-yl)benzo[b]thiophene-2-carboxamide]	0.024 µM	> 50 µM	0.057 µM
CC(C)(c1ccc2sc(C(=O)Nc3cc(Cl)nc(N4CCC5CCCCC5C4)c3)cc2c1)S(C)(=O)=O (stereo not drawn) [Example 108, N-(2-chloro-6-(octahydroisoquinolin-2(1H)-yl)pyridin-4-yl)-5-(2-(methylsulfonyl)propan-2-yl)benzo[b]thiophene-2-carboxamide]	0.085 µM	> 50 µM	0.13 µM
CC(C)(c1cc(Cl)cc(NC(=O)c2cc3cc(C(C)(C)S(C)(=O)=O)ccc3s2)c1)c1cc(OCC(F)(F)F)cc(OC(F)(F)F)c1 [Example 12, N-(3-chloro-5-(2-(3-(2,2,2-trifluoroethoxy)-5-(trifluoromethoxy)phenyl)propan-2-yl)phenyl)-5-(2-(methylsulfonyl)propan-2-yl)benzo[b]thiophene-2-carboxamide]	0.002 µM	> 50 µM	0.025 µM

Further compounds by falling IC50 (STAT3), results first:

IC50 (STAT3)	IC50 (STAT1)	IC50 [1]	SMILES
0.19 µM	> 50 µM	1.5 µM	CC(C)(c1ccc2sc(C(=O)N3CCOc4c(Cl)cc(Oc5ccc(Cl)cc5)cc43)cc2c1)S(C)(=O)=O [Example 96, (8-chloro-6-(4-chlorophenoxy)-2,3-dihydro-4H-benzo[b][1,4]oxazin-4-yl)(5-(2-(methylsulfonyl)propan-2-yl)benzo[b]thiophen-2-yl)methanone]
0.13 µM	> 50 µM	0.45 µM	O=C(Nc1cc(Cl)nc(Oc2ccc(Cl)cc2)c1)c1cc2cc(C3CCCS3(=O)=O)ccc2s1 (stereo not drawn) [Example 73, N-(2-chloro-6-(4-chlorophenoxy)pyridin-4-yl)-5-(1,1-dioxidotetrahydrothiophen-2-yl)benzo[b]thiophene-2-carboxamide]
0.063 µM	> 50 µM	0.13 µM	Cc1cc(Oc2cc(NC(=O)c3cc4cc(C(C)(C)S(C)(=O)=O)ccc4s3)cc(Cl)n2)cs1 [Example 114, N-(2-chloro-6-((5-methylthiophen-3-yl)oxy)pyridin-4-yl)-5-(2-(methylsulfonyl)propan-2-yl)benzo[b]thiophene-2-carboxamide]
0.027 µM	> 50 µM	0.2 µM	COCCS(=O)(=O)C(C)(C)c1ccc2sc(C(=O)Nc3cc(Cl)cc(Oc4ccc(Cl)cc4)c3)cc2c1 [Example 57, N-(3-chloro-5-(4-chlorophenoxy)phenyl)-5-(2-((2-methoxyethyl)sulfonyl)propan-2-yl)benzo[b]thiophene-2-carboxamide]
0.02 µM	> 50 µM	0.034 µM	CC(C)(c1ccc2sc(C(=O)Nc3cc(Cl)nc(Oc4cc(Cl)cc(Cl)c4)c3)cc2c1)S(C)(=O)=O [Example 62, N-(2-chloro-6-(3,5-dichlorophenoxy)pyridin-4-yl)-5-(2-(methylsulfonyl)propan-2-yl)benzo[b]thiophene-2-carboxamide]
0.0089 µM	> 50 µM	0.031 µM	CC(C)(c1ccc2sc(C(=O)Nc3cc(Br)cc(Oc4ccc(Cl)cc4)c3)cc2c1)S(C)(=O)=O [Example 39, N-(3-bromo-5-(4-chlorophenoxy)phenyl)-5-(2-(methylsulfonyl)propan-2-yl)benzo[b]thiophene-2-carboxamide]
